The text below walks through data of patent US11560339B2, “Micronutrient foliar solutions” (KOCH AGRONOMIC SERVICES, LLC, priority 2019, dated 2023).

For series [1], the system named is soybean plants. Description: Fe foliar application trial, SPAD measurements. The class given is in vivo. Particulars: foliar at V3 stage, Fe rate 0.616 mg/pot (Table 20), harvested after 1 week. How it is done:
(§1) The plants were analyzed for leaf chlorophyll concentrations using a Soil Plant Analysis Development (“SPAD”) chlorophyll meter (SPAD 502 Plus Chlorophyll Meter, from Spectrum Technologies, Inc.), which enables an in situ, nondestructive technique. That is, not sample processing was required, and the tests were carried out on live plants. Readings were taken immediately before the first foliar treatment and again at 72 hours after the second foliar treatment, and the % SPAD increase of each sample was determined.
Thirty-six days after transplantation, the plants were harvested. SPAD measurements were taken as described Example 9. Fully grown youngest trifoliate and second youngest trifoliate were selected for these SPAD measurements. A total of nine readings were taken per trifoliate (3 per leaf).
(§2) Example 11 was exactly repeated except that instead of treating the soil with an iron solution by pipetting the solution at the time of transplantation, the plants were treated foliarly at V3 stage of growth and harvested 1 week after treatment. The SPAD, biomass, and iron uptake results can be found in Tables 24-26, respectively, while the Fe(III) reductase gene expression results can be found in FIG. 14.

The subject of series [2] is soybean plants. Description: Fe foliar application trial, biomass measurements. It counts as in vivo. Particulars: foliar at V3 stage, Fe rate 0.616 mg/pot (Table 20), harvested after 1 week. How it is done: (§3) One week after application, root and shoot masses were determined by drying the above- and below-ground biomass for 12 hours at […], then weighing each plant to the third decimal in grams.
(§4) Shoot and root biomasses were also determined, following the procedure described in Example 7.
as §2

The subject of series [3] is soybean plants. Nature of the series: Fe furrow application trial, biomass measurements. It counts as in vivo. The following applies: in furrow at transplanting, Fe rate 0.616 mg/pot, harvested at V3-stage. The protocol:
as §3
(§5) Alkaline soil having a pH of 7.9 was made by mixing air-dried Michigan topsoil (sieved) and fine sand (50:50, v/v). Next, 0.5% w/w calcium hydroxide was added to the soil-sand mixture and mixed well. Water was then added (15% v/v), and the pots were kept in that condition for a week to allow time for alkalinity fully develop. The pH was checked, and the soil was then added to 1-liter pots. There were thirty pots total, providing five replicates for each of the six treatments described below.
(§6) Soybean seeds (FS HISOY® Soybeans) were planted in trays filled with sieved topsoil. A base fertilizer comprising water solution made with urea (N), and monoammonium phosphate (P), and potassium sulfate (K) was applied to each tray before planting. The application rate was of 50-50-50 ppm NPK. Seedlings were irrigated with DI water. The trays were kept in a plant growth chamber so that each seedling received the same environmental exposure during growth.
(§7) Sixteen days after the seeds were planted as described in Part 2 of this Example, the seedlings were transplanted to the pots prepared in Part 1 of this Example. A fertilizer solution was prepared by mixing 16.67 g of Nova PeKacid® 0-60-20 (a phosphorus and potassium fertilizer, available from ICL Specialty Fertilizers), 13.33 g of SOP fertilizer, and 11.2 L of DI water. At the time of transplant, 56.5 mL of this fertilizer solution were added to each pot, and this same fertilizer solution application was repeated weekly until harvest.
(§8) A micronutrient fertilizer solution was prepared by mixing the compounds of Table 19 in 1 L of DI water. At the time of transplanting, 10 mL of this micronutrient fertilizer solution was added to each pot. This application was not repeated during the growth cycle.
(§9) Using a pipette, an iron test solution (comparative or Option 11 solution from Example 9—see Table 20) was applied about 1 cm below the soil surface, near each plant except for the negative control. This was the only iron test solution application.
(§10) All plants received about 100 mL of DI water every other day.
as §4

In series [4] the test system is soybean plants. Description: Fe furrow application trial, SPAD measurements. It counts as in vivo. Particulars: in furrow at transplanting, Fe rate 0.616 mg/pot, harvested at V3-stage. How it is done:
as §1, §5, §6, §7, §8, §9, §10
Thirty-six days after transplantation, the plants were harvested. SPAD measurements were taken as described Example 9. […] A total of nine readings were taken per trifoliate (3 per leaf).

Series [5] deals with soybean plants. Nature of the series: Fe foliar application trial, iron uptake by ICP. It counts as in vivo. The following applies: foliar at V3 stage, Fe rate 0.616 mg/pot (Table 20), harvested after 1 week. The protocol: (§11) Iron concentrations for the various plants were also determined and compared at the time of harvest, which was at least 3 days after the last treatment application. Again, each treatment had five replicates. All samples were washed in acetic acid and rinsed before being prepared for analysis by Inductively Coupled Plasma (“ICP”) Spectroscopy. Dried samples were combusted at 450° C. and extracted with concentrated hydrochloric acid, followed by analysis using ICP.
(§12) Iron uptake was determined using ICP as described in Example 9.
as §2

In series [6] the test system is soybean plants. Description: Fe furrow application trial, iron uptake by ICP. It counts as in vivo. Particulars: in furrow at transplanting, Fe rate 0.616 mg/pot, harvested at V3-stage. How it is done:
as §11, §5, §6, §7, §8, §9, §10, §12

For series [7] the following is noted: 75% by weight solution mixed with 25% by weight of a 50% phosphonate solution, room temperature, one week; FIG. 3. The protocol: The source of iron was iron(II) sulfate heptahydrate, the base utilized was Mg(OH)2, and the citric acid:malic acid ratio was 50:50. The ratio of metal:base:total acid was 4:4:3.
A comparative solution was prepared by mixing 75% of an iron sulfate solution with 25% of the same phosphonate, also under ambient conditions. The solutions were permitted to sit for one week to look for any unwanted precipitation (i.e., iron complexed with the phosphonate).

As to `O=C([O-])CN(CCN(CC(=O)[O-])CC(=O)[O-])CC(=O)[O-].[Fe+3]` [FeEDTA, iron chelated with EDTA], in series [1], the “Average SPAD value, second youngest trifoliate (old)” value (“Average SPAD value … (old)” for short) was found to be 32.74 and the “Average SPAD value, youngest trifoliate (young)” value (“Average SPAD value … (young)” below) is listed as 32.06. In series [2], the “Root average weight/plant (dry biomass)” value was found to be 0.661 g and the “Shoot average weight/plant (dry biomass)” value was found to be 2.514 g. Besides, in series [3], the “Root average dry biomass” value came out at 0.650 g and the “Shoot average dry biomass” value was 2.276 g. In series [4], the “Average SPAD value … (old)” value is on record as 37.94 and the “Average SPAD value … (young)” value turned out to be 39.12. For the same compound, in series [5], the “Average Fe uptake, root” value was 246.69 μg/plant and the “Average Fe uptake, shoot” value is listed as 348.28 μg/plant. In series [6], the “Average Fe uptake, root” value worked out at 183.64 μg/plant and the “Average Fe uptake, shoot” value came out at 188.92 μg/plant.
With `O=S(=O)([O-])[O-].[Fe+2]` [FeSO4, iron sulfate], in series [1], the “Average SPAD value … (old)” value was found to be 29.84 and the “Average SPAD value … (young)” value is recorded as 33.64. In addition, in series [2], the “Root average weight/plant (dry biomass)” value is 0.601 g and the “Shoot average weight/plant (dry biomass)” value is given as 2.199 g. In series [3], the “Root average dry biomass” value was 0.540 g and the “Shoot average dry biomass” value was found to be 1.992 g. Besides, the “extent of coordination complexing of iron (unwanted precipitation with phosphonate)” value in series [7] was “which was not the case”. Also, in series [4], the “Average SPAD value … (old)” value came to 30.74 and the “Average SPAD value … (young)” value is given as 32.98. Also, in series [5], the “Average Fe uptake, root” value was found to be 273.02 μg/plant and the “Average Fe uptake, shoot” value stood at 217.88 μg/plant. In series [6], the “Average Fe uptake, root” value is 172.17 μg/plant and the “Average Fe uptake, shoot” value came to 116.20 μg/plant.
